{
  "source": "patent US20110123617A1",
  "about": "“CLIOQUINOL FOR THE TREATMENT OF HEMATOLOGICAL MALIGNANCIES” (priority 2007, published 2011)",
  "key": {"[1]": {"tested_on": "chymotrypsin-like activity of the proteasome", "assay": "Proteasome activity in cell lysates (Suc-LLVY-AMC cleavage)", "assay_type": "biochemical", "conditions": "cell lysates from leukemia and myeloma cell lines", "method": "A) Proteasome activity of MDAY-D2 and JJN3 cellular extracts after two hours of treatment with clioquinol (CQ), CuCl2 (Cu), or an equimolar concentration of CQ and Cu. After treatment, the preferential chymotrypsin-like substrate Suc-LLVY-AMC was added and the rate of free AMC was measured over time with a florescent spectrophotometric plate reader (excitation=380 nm, emission=460 nm). B) Proteasome activity of intact MDAY-D2 and JJN3 cells after two hours of treatment with clioquinol (CQ), CuCl2 (Cu), or an equimolar concentration of CQ and Cu. After treatment, the preferential chymotrypsin-like substrate Suc-LLVY-AMC was added and the rate of free AMC was measured over time with a florescent spectrophotometric plate reader (excitation=380 nm, emission=460 nm). […] The chymotrypsin-like activity of the proteasome was measured by incubating equal amounts of protein with the preferential chymotrypsin-like substrate Suc-LLVY-AMC in assay buffer (50 mM Tris-HCl, pH 7.5, 150 mM NaCl) for two hours. After incubation, […] and the rate of free AMC was measured over time with a florescent spectrophotometric plate reader (excitation=380 nm, emission=460 nm). […] The chymotrypsin-like activity of the proteasome was measured by monitoring the rate of cleavage of the fluorescent substrate Suc-LLVY-AMC."}, "[2]": {"tested_on": "chymotrypsin-like activity of the proteasome", "assay": "Proteasome activity after treatment of intact cell lines", "assay_type": "cell-based", "conditions": "intact leukemia and myeloma cell lines", "method": "A) Proteasome activity of MDAY-D2 and JJN3 cellular extracts after two hours of treatment with clioquinol (CQ), CuCl2 (Cu), or an equimolar concentration of CQ and Cu. After treatment, the preferential chymotrypsin-like substrate Suc-LLVY-AMC was added and the rate of free AMC was measured over time with a florescent spectrophotometric plate reader (excitation=380 nm, emission=460 nm). B) Proteasome activity of intact MDAY-D2 and JJN3 cells after two hours of treatment with clioquinol (CQ), CuCl2 (Cu), or an equimolar concentration of CQ and Cu. After treatment, the preferential chymotrypsin-like substrate Suc-LLVY-AMC was added and the rate of free AMC was measured over time with a florescent spectrophotometric plate reader (excitation=380 nm, emission=460 nm). Cellular proteins were extracted from cells with lysis buffer (50 mM HEPES pH 7.5, 150 mM NaCl, 2 mM ATP, and 1% Triton X-100). The chymotrypsin-like activity of the proteasome was measured by incubating equal amounts of protein with the preferential chymotrypsin-like substrate Suc-LLVY-AMC in assay buffer (50 mM Tris-HCl, pH 7.5, 150 mM NaCl) for two hours. After incubation, […] and the rate of free AMC was measured over time with a florescent spectrophotometric plate reader (excitation=380 nm, emission=460 nm). […]"}},
  "data": [
    {"smiles": "[Cl][Cu][Cl]", "note": "[copper, CuCl2]", "values": [
      {"measurement": "rate of Suc-LLVY-AMC cleavage", "setting": "[1]", "value": "inhibited the rate of Suc-LLVY-AMC cleavage"},
      {"measurement": "chymotrypsin-like activity of the proteasome", "setting": "[2]", "value": "no effect on the function of proteasome"}
    ]}
  ]
}
